According to PMC11357256, “Selectivity Screening and Structure–Cytotoxic Activity Observations of Selected Oleanolic Acid (OA)-Type Saponins from the Amaranthaceae Family on a Wiade Panel of Human Cancer Cell Lines” (Molecules, 2024):
Like-named read-outs stand apart in the source and are kept apart here.

Key:
[1] = test system: LNCaP; experiment: MTT cell viability assay, LNCaP prostate adenocarcinoma cells; assay type: cell-based; details: Homo sapiens
Source text: (§1) Cell lines used in the study were grouped as follows: skin panel (melanomas: HTB140, derived from metastatic site: lymph node, ATCC Hs 294 T; malignant A375, ATCC CRL-1619; stage I primary WM793, RRID:CVCL 8787; skin keratinocytes HaCaT); prostate panel (prostate carcinomas: Du145, derived from metastatic site: brain, ATCC HTB-81; grade IV PC3, derived from metastatic site: bone, ATCC CRL-1435, LNCaP, derived from the metastatic site: lymph node, ATCC CRL-1740; prostate epithelial, PNT2, ECACC 95012613); gastrointestinal panel (colorectal adenocarcinomas: Caco2, ATCC HTB-37, HT29, ATCC HTB-38, DLD-1, ATCC CCL-221, HCT116, ATCC CCL-247, and colon epithelial cells CCD 841 CoN, ATCC CRL-1790; hepatocellular carcinoma HepG2, ATCC HB-8065); thyroid panel (follicular thyroid carcinoma FTC133, ECACC 9406090, undifferentiated thyroid carcinoma 8505C, ECACC 94090184, papillary thyroid carcinoma TPC-1, SCC147, normal thyroid follicular epithelial Nthy-ori 3–1, ECACC 90011609); and breast panel (ER-positive breast adenocarcinoma MCF7, ATCC HTB-22; ER-negative breast adenocarcinoma MDA-MB-231, ATCC HTB-26; breast epithelial MCF10A, ATCC CRL-10317). Cells were grown under standard conditions (37 °C, 5% CO2, relative humidity), and culture media (DMEM/F12 for PNT2, WM 793, HT29, PC3, FTC133, 8505 C, MDA-MB-231, TPC-1; DMEM Low Glucose for DU145; DMEM High Glucose for HTB140, A375, HaCaT; MEM with NEAA for Caco2 and MCF7; RPMI1640 with sodium pyruvate for LNCaP; DMEM/F12 with 20 ng/mL epidermal growth factor (EGF), 10 μg/mL insulin, 0.5 μg/mL hydrocortisone, 100 ng/mL cholera toxin) for MCF10A) supplemented with 10% fetal bovine serum (FBS) or 5% donor horse serum for MCF10A, and 1% antibiotics solution (10,000 U penicillin and 10 mg streptomycin/mL) […], as previously described. All cell lines, culture media, and supplements were from Sigma-Aldrich (Germany).
(§2) The cells were seeded in 96-well plates (1.5 × 10^4 cells/well). After 24 h, fresh medium was added, containing the tested compounds (0.5–100 μg/mL) and incubated for 24 or 48 h. Cell viability was determined by MTT assay, according to the manufacturer’s instructions, as described previously. Each experiment was performed in triplicate. The absorbance was measured at 570 nm using a Biotek Synergy microplate reader (BioTek Instruments Inc., Winooski, VT, USA). Cell viability was expressed as a percent of control (untreated cells). Doxorubicin was used as a reference drug.

[2] = test system: MDA-MB-231; experiment: MTT cell viability assay, MDA-MB-231 breast adenocarcinoma cells; assay type: cell-based; details: Homo sapiens
Source text: as §1, §2

[3] = test system: PC3; experiment: MTT cell viability assay, PC3 prostate carcinoma cells; assay type: cell-based; details: Homo sapiens, PC-3
Source text: as §1, §2

[4] = test system: HepG2; experiment: MTT cell viability assay, HepG2 hepatocellular carcinoma cells; assay type: cell-based; details: Homo sapiens
Source text: as §1, §2

[5] = test system: MCF-7 cells; details: cited from earlier work
[6] = test system: TPC-1; experiment: MTT cell viability assay, TPC-1 papillary thyroid carcinoma cells; assay type: cell-based, human; details: for IC50: Homo sapiens, TPC1
Source text: as §1, §2
(§3) The selectivity index (SI) was calculated from the following formula:SI = IC50 of compound in a normal cell line/IC50 of compound in cancer cell line.IC50, half maximal inhibitory concentration, is a concentration required to kill 50% of the cells.

[7] = test system: DLD-1; experiment: MTT cell viability assay, DLD-1 colon cancer cells; assay type: cell-based; details: Homo sapiens
Source text: as §1, §2

[8] = test system: 8505C; experiment: MTT cell viability assay, 8505C undifferentiated thyroid carcinoma cells; assay type: cell-based, human; details: for IC50: Homo sapiens, 8505C; for Selectivity Index (SI): IC50 Nthy-ori 3-1 / IC50 8505C
Source text: as §1, §2, §3

[9] = test system: MCF7; experiment: MTT cell viability assay, MCF7 breast adenocarcinoma cells; assay type: cell-based; details: Homo sapiens
Source text: as §1, §2

[10] = test system: Nthy-ori 3-1; experiment: MTT cell viability assay, Nthy-ori 3-1 normal thyroid epithelial cells; assay type: cell-based; details: Homo sapiens
Source text: as §1, §2

[11] = test system: PNT2; experiment: MTT cell viability assay, PNT2 normal prostate epithelial cells; assay type: cell-based; details: Homo sapiens
Source text: as §1, §2

[12] = test system: A375; experiment: MTT cell viability assay, A375 malignant melanoma cells; assay type: cell-based, human; details: for IC50: Homo sapiens, A-375
Source text: as §1, §2, §3

[13] = test system: HCT116; experiment: MTT cell viability assay, HCT116 colon cancer cells; assay type: cell-based; details: Homo sapiens, HCT-116
Source text: as §1, §2

[14] = test system: FTC133; experiment: MTT cell viability assay, FTC133 follicular thyroid carcinoma cells; assay type: cell-based, human; details: for IC50: Homo sapiens, FTC-133
Source text: as §1, §2, §3

[15] = test system: Caco-2; experiment: MTT cell viability assay, Caco-2 colon cancer cells; assay type: cell-based; details: Homo sapiens
Source text: as §1, §2

[16] = test system: HTB-140; experiment: MTT cell viability assay, HTB-140 metastatic melanoma cells; assay type: cell-based, human; details: for IC50: Homo sapiens
Source text: as §1, §2, §3

[17] = test system: HaCaT; experiment: MTT cell viability assay, HaCaT keratinocytes; assay type: cell-based; details: Homo sapiens
Source text: as §1, §2

[18] = test system: Du-145; experiment: MTT cell viability assay, Du-145 prostate carcinoma cells; assay type: cell-based; details: Homo sapiens
Source text: as §1, §2

[19] = test system: HT29; experiment: MTT cell viability assay, HT29 colorectal adenocarcinoma cells; assay type: cell-based; details: Homo sapiens, HT-29
Source text: as §1, §2

For CC1(C)CCC2(C(=O)O)CCC3(C)C(=CCC4C5(C)CCC(OC6OC(C(=O)O)C(O)C(O)C6O)C(C)(C)C5CCC43C)C2C1 [CE, oleanolic acid-3-O-β-D-glucuronopyranoside], the IC50 ([1]; 24 h) was > 100 µg/mL, the IC50 ([1]; 48 h) was > 100 µg/mL and the IC50 ([2]; MDA-MB-231, 24 h) was 69.6 µg/mL. The IC50 ([2]; MDA-MB-231, 48 h) was 23.5 µg/mL, the IC50 ([3]; PC3, 24 h) was 5.6 µg/mL and the IC50 ([3]; PC3, 48 h) was 2.9 µg/mL. The IC50 ([4]; HepG2, 24 h) was 16.5 µg/mL, the IC50 ([4]; HepG2, 48 h) was 6.9 µg/mL and the IC50 ([5]; 48 h, ref 13) was 35.4 µg/mL. For the same compound, the IC50 ([5]; 48 h, ref 14, read-out: IC50) was 19.7 µM, the IC50 ([5]; 72 h, read-out: IC50) was 13.4 µM and the IC50 ([6]; TPC-1, 24 h) was 8.5 µg/mL. For the same compound, the IC50 ([6]; TPC-1, 48 h) was 5.8 µg/mL, the “Selectivity Index (SI)” value ([6]; IC50 Nthy-ori 3-1 / IC50 TPC-1, 24 h) was 9.0 and the “Selectivity Index (SI)” value ([6]; IC50 Nthy-ori 3-1 / IC50 TPC-1, 48 h) was 5.1. For the same compound, the IC50 ([7]; DLD-1, 24 h) was 31.2 µg/mL, the IC50 ([7]; DLD-1, 48 h) was 9 µg/mL and the IC50 ([8]; 24 h) was 2.8 µg/mL. For the same compound, the IC50 ([8]; 48 h) was 1.8 µg/mL, the “Selectivity Index (SI)” value ([8]; 24 h) was 26.9 and the “Selectivity Index (SI)” value ([8]; 48 h) was 16.5. The IC50 ([9]; MCF7, 24 h) was > 100 µg/mL, the IC50 ([9]; MCF7, 48 h) was 39.5 µg/mL and the IC50 ([10]; 24 h) was 76 µg/mL. For the same compound, the IC50 ([10]; 48 h) was 30.1 µg/mL, the IC50 ([11]; 24 h) was > 100 µg/mL and the IC50 ([11]; 48 h) was > 100 µg/mL. The IC50 ([12]; A375, 24 h) was 1.8 µg/mL, the IC50 ([12]; A375, 48 h) was 0.8 µg/mL and the “Selectivity Index (SI)” value ([12]; IC50 HaCaT / IC50 A375, 24 h) was 2.9. The “Selectivity Index (SI)” value ([12]; IC50 HaCaT / IC50 A375, 48 h) was 2.6, the IC50 ([13]; HCT116, 24 h) was 14.3 µg/mL and the IC50 ([13]; HCT116, 48 h) was 10.2 µg/mL. For the same compound, the IC50 ([14]; FTC133, 24 h) was 1.9 µg/mL, the IC50 ([14]; FTC133, 48 h) was 1.1 µg/mL and the “Selectivity Index (SI)” value ([14]; IC50 Nthy-ori 3-1 / IC50 FTC133, 24 h) was 38.6. The “Selectivity Index (SI)” value ([14]; IC50 Nthy-ori 3-1 / IC50 FTC133, 48 h) was 28.1, the IC50 ([15]; Caco-2, 24 h) was 2 µg/mL and the IC50 ([15]; Caco-2, 48 h) was 1 µg/mL. The IC50 ([16]; HTB-140, 24 h) was 2.8 µg/mL, the IC50 ([16]; HTB-140, 48 h) was 1.7 µg/mL and the “Selectivity Index (SI)” value ([16]; IC50 HaCaT / IC50 HTB-140, 24 h) was 1.8. The “Selectivity Index (SI)” value ([16]; IC50 HaCaT / IC50 HTB-140, 48 h) was 1.1, the IC50 ([17]; 24 h) was 5.1 µg/mL and the IC50 ([17]; 48 h) was 2 µg/mL. The IC50 ([18]; DU-145, 24 h) was 6.7 µg/mL, the IC50 ([18]; DU-145, 48 h) was 4.3 µg/mL and the IC50 ([19]; HT29, 24 h) was 4.5 µg/mL. For the same compound, the IC50 ([19]; HT29, 48 h) was 2 µg/mL.
